# pIC50: −log10 of the molar value.
# Biological target: T1, wild-type HIV-1 protease (Human immunodeficiency virus type 1 group M subtype B, UniProt P04585)
# T1 construct: Escherichia coli expressed wild-type HIV-1 protease protein; made in house; host or cells: Escherichia coli
# Assay: Assay for Inhibition of Microbial Expressed HIV Protease
# Format: biochemical
# Details: E. coli expressed wild-type HIV-1 protease, peptide substrate cleavage, LC-MS readout; mean of at least two independent experiments; read-out: HIV Pr Enzyme HIV1 PR IC50
# Method: Assay for Inhibition of Microbial Expressed HIV Protease
# Inhibition of Escherichia coli expressed wild-type HIV-1 protease protein was carried out with a peptide substrate [Val-Ser-Gln-Asn-(βnaphtyl)Ala-Pro-Ile-Val]. The inhibitor compound was preincubated with HIV-1 protease enzyme in assay buffer (50 mM sodium acetate, pH 5.5, 100 mM NaCl, and 0.1% BSA) for 30 minutes at room temperature. Peptide substrate was added to […] in a total volume of 20 μL containing 20 pM HIV-1 protease (final) after which the reaction was incubated for 1 hour at 30° C. The reaction was quenched by the addition of formic acid and HIV protease inhibitor indinavir to 0.012% and 150 nM final concentrations, respectively. Product formation was determined after separation of product and substrate on a ZORBAX Eclipse XDB-C18 column (Aligent Technologies, Santa Clara, Calif., USA) connected to an API 4000™ mass spectrometer (AB Sciex, Pte. Ltd., Concord Ontario, Canada) with multiple reaction monitoring (transitions were 644.5/428.9 and 615.4/422.2 (M1/M3) for product and indinavir respectively). The extent of inhibition of the reaction was determined from the peak area of the products. Analysis of the products, independently synthesized, provided quantitation standards and confirmation of the product composition.
structure (smiles),measurement,value
"COC(=O)N[C@@H](Cc1ccncc1)C(=O)NCCCCN1C(=N)NC(CCC(C)C)(c2ccccc2)C1=O (stereo partly drawn) [Example 22, methyl [(1S)-2-({4-[2-imino-4-(3-methylbutyl)-5-oxo-4-phenylimidazolidin-1-yl]butyl}amino)-2-oxo-1-(pyridin-4-ylmethyl)ethyl]carbamate]",pIC50,7.22
"COC(=O)N[C@@H](Cc1ccncc1)C(=O)NCCCCCN1C(=N)NC(c2ccccc2)(c2ccccc2)C1=O [Example 20, methyl [(1S)-2-{[5-(2-imino-5-oxo-4,4-diphenylimidazolidin-1-yl)pentyl]amino}-2-oxo-1-(pyridin-4-ylmethyl)ethyl]carbamate]",pIC50,7.04
"CC[C@@H](CCCN1C(=N)N[C@](CC(C)C)(c2ccccc2)C1=O)NC(=O)[C@H](Cc1ccccc1)NC(=O)OC [Example 47, N-{(1S)-1-ethyl-4-[(4R)-2-imino-4-(2-methylpropyl)-5 oxo-4-phenylimidazolidin-1 yl]butyl}-N-alpha-(methoxycarbonyl)-L-phenylalaninamide]",pIC50,7.66
"COC(=O)N[C@@H](Cc1ccccc1Cl)C(=O)N[C@H](CCCN1C(=N)N[C@](CC(C)C)(c2ccccc2)C1=O)C1CC1 [Example 33, 2-chloro-N-{(1R)-1-cyclopropyl-4-[(4R)-2-imino-4-(2-methylpropyl)-5-oxo-4-phenylimidazolidin-1-yl]butyl}-N-alpha-(methoxycarbonyl)-L-phenylalaninamide]",pIC50,7.64

# — patent US10696639B2, “Heterocyclic compounds as HIV protease inhibitors” (Merck Sharp & Dohme Corp., priority 2016, dated 2020)
